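Interpolation was linear, between the two tested concentrations surrounding the appropriate level; five concentrations were tested over 48 hours in 96-well plates. Here, GI50 denotes the concentration required for 50% inhibition of growth. TGI marks complete inhibition of growth.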
Tests used:
Assay in all cases: NCI tumour cell line growth inhibition, 48 h
HCT-116 colon = test system: HCT-116 colon
K-562 leukemia = test system: K-562 leukemia
SF-268 CNS = test system: SF-268 CNS
NCI-H460 lung = test system: NCI-H460 lung
OVCAR-8 ovarian = test system: OVCAR-8 ovarian
BT-549 breast = test system: BT-549 breast
UACC-62 melanoma = test system: UACC-62 melanoma
SK-MEL-28 melanoma = test system: SK-MEL-28 melanoma
EKVX NSCLC = test system: EKVX NSCLC
HCC-2998 colon = test system: HCC-2998 colon
HT29 colon = test system: HT29 colon
SN12C renal = test system: SN12C renal
OVCAR-4 ovarian = test system: OVCAR-4 ovarian
HOP-92 NSCLC = test system: HOP-92 NSCLC
UACC-257 melanoma = test system: UACC-257 melanoma
HCT-15 colon = test system: HCT-15 colon
M14 melanoma = test system: M14 melanoma
IGROV1 ovarian = test system: IGROV1 ovarian
NCI/ADR-RES ovarian = test system: NCI/ADR-RES ovarian
OVCAR-5 ovarian = test system: OVCAR-5 ovarian
A498 renal = test system: A498 renal
SF-295 CNS = test system: SF-295 CNS
MDA-MB-435 = test system: MDA-MB-435
RPMI-8226 leukemia = test system: RPMI-8226 leukemia
SR leukemia = test system: SR leukemia
U251 CNS = test system: U251 CNS
SF-539 CNS = test system: SF-539 CNS
786-0 renal = test system: 786-0 renal
CAKI-1 renal = test system: CAKI-1 renal
SK-MEL-2 melanoma = test system: SK-MEL-2 melanoma
NCI-H226 lung = test system: NCI-H226 lung
NCI-H522 lung = test system: NCI-H522 lung
PC-3 prostate = test system: PC-3 prostate
MDA-MB-231 breast = test system: MDA-MB-231 breast
SNB-19 CNS = test system: SNB-19 CNS
MOLT-4 leukemia = test system: MOLT-4 leukemia
HOP-62 NSCLC = test system: HOP-62 NSCLC
T-47D breast = test system: T-47D breast
SW-620 colon = test system: SW-620 colon
LOX IMVI melanoma = test system: LOX IMVI melanoma
OVCAR-3 ovarian = test system: OVCAR-3 ovarian
RXF 393 renal = test system: RXF 393 renal
HS 578T breast = test system: HS 578T breast
SK-OV-3 ovarian = test system: SK-OV-3 ovarian
ACHN renal = test system: ACHN renal
KM12 colon = test system: KM12 colon
DU-145 prostate = test system: DU-145 prostate
CCRF-CEM leukemia = test system: CCRF-CEM leukemia
A549 NSCLC = test system: A549 NSCLC
COLO 205 colon = test system: COLO 205 colon
SK-MEL-5 melanoma = test system: SK-MEL-5 melanoma
UO-31 renal = test system: UO-31 renal
TK-10 renal = test system: TK-10 renal
MALME-3M melanoma = test system: MALME-3M melanoma
MCF7 breast = test system: MCF7 breast
NCI-H23 lung = test system: NCI-H23 lung
SNB-75 CNS = test system: SNB-75 CNS
HL-60(TB) leukemia = test system: HL-60(TB) leukemia

Structure (SMILES): O=C(Nc1cccc(C(F)(F)F)c1)Oc1ccc(Cl)c2cccnc12
- GI50 (HCT-116 colon): 0.615 µM
- TGI (HCT-116 colon): 8.03 µM
- GI50 (K-562 leukemia): 1.02 µM
- TGI (K-562 leukemia): > 100 µM
- GI50 (SF-268 CNS): 1.36 µM
- TGI (SF-268 CNS): 16.6 µM
- GI50 (NCI-H460 lung): 1.01 µM
- TGI (NCI-H460 lung): 5.08 µM
- GI50 (OVCAR-8 ovarian): 0.906 µM
- TGI (OVCAR-8 ovarian): 6.16 µM
- GI50 (BT-549 breast): 0.524 µM
- TGI (BT-549 breast): 3.69 µM
- GI50 (UACC-62 melanoma): 1.15 µM
- TGI (UACC-62 melanoma): 3.57 µM
- GI50 (SK-MEL-28 melanoma): 4.29 µM
- TGI (SK-MEL-28 melanoma): 17.8 µM
- GI50 (EKVX NSCLC): 1.83 µM
- TGI (EKVX NSCLC): 6.88 µM
- GI50 (HCC-2998 colon): 3.51 µM
- TGI (HCC-2998 colon): 12.8 µM
- GI50 (HT29 colon): 3.9 µM
- TGI (HT29 colon): 14.1 µM
- GI50 (SN12C renal): 1.85 µM
- TGI (SN12C renal): 7.89 µM
- GI50 (OVCAR-4 ovarian): 0.831 µM
- TGI (OVCAR-4 ovarian): 14.8 µM
- GI50 (HOP-92 NSCLC): 0.462 µM
- TGI (HOP-92 NSCLC): 4.02 µM
- GI50 (UACC-257 melanoma): 1.32 µM
- TGI (UACC-257 melanoma): 3.24 µM
- GI50 (HCT-15 colon): 0.584 µM
- TGI (HCT-15 colon): 9.19 µM
- GI50 (M14 melanoma): 1.49 µM
- TGI (M14 melanoma): 7.83 µM
- GI50 (IGROV1 ovarian): 1.22 µM
- TGI (IGROV1 ovarian): 4.43 µM
- GI50 (NCI/ADR-RES ovarian): 1.23 µM
- TGI (NCI/ADR-RES ovarian): 16.8 µM
- GI50 (OVCAR-5 ovarian): 3.6 µM
- TGI (OVCAR-5 ovarian): 18 µM
- GI50 (A498 renal): 3.82 µM
- TGI (A498 renal): 12.4 µM
- GI50 (SF-295 CNS): 0.976 µM
- TGI (SF-295 CNS): 6.93 µM
- GI50 (MDA-MB-435): 1.89 µM
- TGI (MDA-MB-435): 9.5 µM
- GI50 (RPMI-8226 leukemia): 0.561 µM
- TGI (RPMI-8226 leukemia): 4.22 µM
- GI50 (SR leukemia): 0.447 µM
- GI50 (U251 CNS): 0.861 µM
- TGI (U251 CNS): 8.57 µM
- GI50 (SF-539 CNS): 1.85 µM
- TGI (SF-539 CNS): 7.92 µM
- GI50 (786-0 renal): 5.09 µM
- TGI (786-0 renal): 15.4 µM
- GI50 (CAKI-1 renal): 2.03 µM
- TGI (CAKI-1 renal): 4.79 µM
- GI50 (SK-MEL-2 melanoma): 2.07 µM
- TGI (SK-MEL-2 melanoma): 5.55 µM
- GI50 (NCI-H226 lung): 2.25 µM
- TGI (NCI-H226 lung): 5.75 µM
- GI50 (NCI-H522 lung): 0.906 µM
- TGI (NCI-H522 lung): 4.28 µM
- GI50 (PC-3 prostate): 0.607 µM
- TGI (PC-3 prostate): 14.2 µM
- GI50 (MDA-MB-231 breast): 2.11 µM
- TGI (MDA-MB-231 breast): 6.15 µM
- GI50 (SNB-19 CNS): 2.52 µM
- TGI (SNB-19 CNS): > 32.8 µM
- GI50 (MOLT-4 leukemia): 0.86 µM
- TGI (MOLT-4 leukemia): 22.8 µM
- GI50 (HOP-62 NSCLC): 2.99 µM
- TGI (HOP-62 NSCLC): 11 µM
- GI50 (T-47D breast): 1.8 µM
- TGI (T-47D breast): > 28.2 µM
- GI50 (SW-620 colon): 1.49 µM
- TGI (SW-620 colon): 12.9 µM
- GI50 (LOX IMVI melanoma): 0.764 µM
- TGI (LOX IMVI melanoma): 4.02 µM
- GI50 (OVCAR-3 ovarian): 0.832 µM
- TGI (OVCAR-3 ovarian): 6.93 µM
- GI50 (RXF 393 renal): 1.2 µM
- TGI (RXF 393 renal): 5.49 µM
- GI50 (HS 578T breast): 3.56 µM
- TGI (HS 578T breast): > 24 µM
- GI50 (SK-OV-3 ovarian): 6.64 µM
- TGI (SK-OV-3 ovarian): 29.3 µM
- GI50 (ACHN renal): 1.23 µM
- TGI (ACHN renal): 5.43 µM
- GI50 (KM12 colon): 3.94 µM
- TGI (KM12 colon): 13.4 µM
- GI50 (DU-145 prostate): 2.38 µM
- TGI (DU-145 prostate): 15.8 µM
- GI50 (CCRF-CEM leukemia): 0.708 µM
- TGI (CCRF-CEM leukemia): 16.1 µM
- GI50 (A549 NSCLC): 2.43 µM
- TGI (A549 NSCLC): 9.03 µM
- GI50 (COLO 205 colon): 2.48 µM
- TGI (COLO 205 colon): 6.39 µM
- GI50 (SK-MEL-5 melanoma): 1.31 µM
- TGI (SK-MEL-5 melanoma): 2.88 µM
- GI50 (UO-31 renal): 1.06 µM
- TGI (UO-31 renal): 5.39 µM
- GI50 (TK-10 renal): 4.1 µM
- TGI (TK-10 renal): 21.4 µM
- GI50 (MALME-3M melanoma): 1.18 µM
- TGI (MALME-3M melanoma): 3.96 µM
- GI50 (MCF7 breast): 1.46 µM
- TGI (MCF7 breast): 6.77 µM
- GI50 (NCI-H23 lung): 1.48 µM
- TGI (NCI-H23 lung): 11.7 µM
- GI50 (SNB-75 CNS): 2.59 µM
- TGI (SNB-75 CNS): 17.8 µM
- GI50 (HL-60(TB) leukemia): 0.776 µM

From PubChem BioAssay (NCI)
